The term pIC50 denotes −log10 of the IC50, conventionally taken in molar units.

SMILES strings stand for the structures. pIC50: −log10 of the molar value.

Chain of Plasmodium falciparum protein kinase 6 (PK6, PF3D7_1337100) (Q8IDW1 1-305): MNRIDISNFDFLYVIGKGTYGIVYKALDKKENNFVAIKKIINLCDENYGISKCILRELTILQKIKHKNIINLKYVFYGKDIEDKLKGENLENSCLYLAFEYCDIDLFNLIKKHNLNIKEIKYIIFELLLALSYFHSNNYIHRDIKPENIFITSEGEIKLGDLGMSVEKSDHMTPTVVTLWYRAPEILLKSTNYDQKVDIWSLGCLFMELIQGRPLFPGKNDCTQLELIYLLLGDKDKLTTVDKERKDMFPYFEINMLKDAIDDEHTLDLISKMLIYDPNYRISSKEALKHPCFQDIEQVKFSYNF

This assay concerns the target Plasmodium falciparum protein kinase 6 (PK6, PF3D7_1337100) (UniProt Q8IDW1). Kind of assay: PfPK6 kinase inhibitors, biochemical, TCAMS library (AID 1159586). The settings on record: recombinant PfPK6, Kinase-Glo ATP depletion luminescence. (In Kinase-Glo more light means more ATP remaining.)
Regarding `CS(=O)(=O)Cc1cccc(Nc2ncc(Cl)c(Nc3cccnc3C(N)=O)n2)c1`, the pIC50 is 7.13.

Regarding `CS(=O)(=O)Cc1ccc(Nc2nccc(-c3c(-c4cccc(NC(=O)C5CCCCC5)c4)nn4ncccc34)n2)cc1`, the pIC50 is 6.86.

On to `CNC(=O)c1ccccc1Nc1nc(Nc2ccc(N3CCN(C)CC3)nc2)ncc1C`, for which the pIC50 is 6.84.

`O=c1[nH]ccc2nc(N[C@@H]3CCCNC3)nc(Nc3ccc(S(=O)(=O)N4CCOCC4)cc3)c12`: the pIC50 is 6.94.

Turning to `NS(=O)(=O)c1ccc(Nc2nccc(-c3c(-c4cccc(NC(=O)c5c(F)cccc5F)c4)nn4ccccc34)n2)cc1`, the pIC50 is 6.85.

With `CCN(CC)CCNc1nccc(N(C)c2ccc(NC(=O)Nc3cc(C(F)(F)F)ccc3F)cc2)n1`, the pIC50 was 6.04.

For `COc1ccc(Nc2ncc3c(-c4cccc(NC(=O)Cc5ccc(O)cc5)c4)c[nH]c3n2)cc1OC`, the pIC50 is 6.35.

In the case of `CS(=O)(=O)Cc1ccc(Nc2nccc(-c3c(-c4cccc(NC(=O)c5c(F)cccc5F)c4)nn4ccccc34)n2)cc1`, the pIC50 is 6.56.

As for `CNC(=O)c1ccccc1Nc1nc(Nc2cccc(CS(C)(=O)=O)c2)ncc1C`, the pIC50 is 6.88.

As to `CCN(CC)CCOc1ccc(Nc2ncc3cc(-c4c(Cl)cccc4Cl)c(=O)n(C)c3n2)cc1`, the pIC50 was 6.46.

For the compound `COc1ccc(Nc2ncc(Cl)c(Nc3cccnc3C(N)=O)n2)cc1N1CCN(C)CC1`, the pIC50 is 7.07.

Take `Cc1cc(Nc2nc(Nc3cccc(Cl)c3)nc3ccccc23)n[nH]1`: the pIC50 is 6.82.

In the case of `O=S1(=O)NCc2ccc(Nc3nccc(Nc4ccc5c(cnn5Cc5ccccc5)c4)n3)cc21`, the pIC50 is 6.58.

With `N=C(N)c1ccc(Nc2nc(Nc3ccc(-c4ccccc4)cc3)ncc2[N+](=O)[O-])cc1`, the pIC50 was 6.79.

As for `O=C(Cc1ccc(Nc2nccc(Nc3cccc4[nH]ncc34)n2)cc1)Nc1ccc(C(F)(F)F)cc1`, the pIC50 is 6.78.

For the compound `Cn1nc(-c2ccc(NC(=O)Nc3ccc4ccccc4c3)c(F)c2)c2cnc(NCCN3CCOCC3)nc21`, the pIC50 was 6.07.

Turning to `CC(=O)c1ccc(NC(=O)Nc2ccc(N(C)c3ccnc(Nc4cccc(CS(C)(=O)=O)c4)n3)cc2)cc1`, the pIC50 is 6.86.

With `CN(c1ccc(NC(=O)Nc2cc(C(F)(F)F)ccc2F)cc1)c1ccnc(NCCN2CCOCC2)n1`, the pIC50 was 6.28.

On to `Cc1ccc(S(=O)(=O)Nc2ccc(Nc3nccc(Nc4cccc5[nH]ncc45)n3)cc2)cc1`, for which the pIC50 is 6.08.

Consider `Cn1c(=O)c(-c2c(Cl)cccc2Cl)cc2cnc(Nc3ccc(N4CCOCC4)cc3)nc21`, for which the pIC50 was 6.84.

As to `C#CCNC(=O)c1ccc(-c2ccnc(Nc3cccc(CCCN4CCOCC4)c3)n2)s1`, the pIC50 was 6.74.

For the compound `Nc1ncc(-c2cccc(F)c2)cc1-c1nc2ccc(F)cc2[nH]1`, the pIC50 is 6.69.

Turning to `CC(=O)Nc1ccc(Nc2ncc([N+](=O)[O-])c(Nc3ccccc3C(N)=O)n2)cc1`, the pIC50 was 6.89.

As for `CCNC(=O)Nc1ccc(N(C)c2ccnc(Nc3ccc(CS(C)(=O)=O)cc3)n2)cc1`, the pIC50 was 6.57.

Take `CN1CCN(c2ccc(Nc3nccc(-c4cnn5ncccc45)n3)cc2Cl)CC1`: the pIC50 is 6.75.

On to `CN1CCC(NC(=O)c2cccc(Nc3cc(Nc4cccc(Br)c4)ncn3)c2)CC1`, for which the pIC50 was 6.22.

With `CNC(=O)c1ccccc1Nc1nc(Nc2ccc(CCN3CCN(C)CC3)cc2)ncc1Cl`, the pIC50 was 7.15.

As to `Cc1ccc(Nc2ccnc(Nc3ccc4c(c3)CS(=O)(=O)C4)n2)cc1O`, the pIC50 is 6.91.

With `CCN(CC)CCCOc1ccc(Nc2nccc(-c3c(-c4cccc(NC(=O)c5c(F)cccc5F)c4)nn4ccccc34)n2)cc1F`, the pIC50 was 6.52.

On to `O=C(Nc1cccc(-c2nn3ccccc3c2-c2ccnc(Nc3ccc(NCCCN4CCOCC4)c(F)c3)n2)c1)c1c(F)cccc1F`, for which the pIC50 is 6.24.

Consider `N=C(N)c1ccc(Nc2nccc(Nc3nc(-c4ccccc4)cs3)n2)cc1`, for which the negative logarithm of the IC50 (pIC50) was 6.38.

Take `CN1CCN(c2ccc(Nc3ncc(C#N)c(Nc4ccccc4C(N)=O)n3)cc2)CC1`: the pIC50 was 7.05.

For the compound `CNC(=O)c1ccccc1Nc1nc(Nc2ccc(N3CCOCC3)cc2)ncc1Cl`, the pIC50 is 7.38.

Regarding `COc1cccc(-n2ncc3c(N/N=C/c4ccc(CN(C)CCN(C)C)cc4)ncnc32)c1`, the pIC50 was 7.24.

In the case of `Cn1cc(-c2ccnc3[nH]c(-c4cccc(CNC5CCC(O)CC5)c4)cc23)cn1` (centres undefined), the pIC50 was 6.75.

In the case of `Cc1cc(Nc2ncc(Cl)c(Nc3ccccc3C(N)=O)n2)n[nH]1`, the pIC50 was 6.89.

In the case of `CN(c1ccc2c(c1)nc(NCc1ccccc1)n2C)c1ccnc(Nc2ccc(CS(C)(=O)=O)cc2)n1`, the pIC50 is 6.33.

For the compound `CCN(CC)CCNC(=O)c1ccc(Nc2ncc([N+](=O)[O-])c(Nc3ccccc3OC)n2)cc1`, the pIC50 is 6.96.

In the case of `CS(=O)(=O)Cc1ccc(Nc2nccc(-c3c(-c4cccc(C(=O)Nc5c(F)cccc5F)c4)nn4ccccc34)n2)cc1`, the pIC50 is 6.98.

As for `COc1ccc(Nc2ncc(OC)c(Nc3ccccc3C(N)=O)n2)cc1N1CCN(C)CC1`, the pIC50 is 6.57.

As for `C(=N\Nc1nccc2sc(-c3ccccc3)cc12)/c1cccnc1`, the pIC50 is 6.56.

With `CN(c1ccc(NC(=O)Nc2cc(C(C)(C)C)on2)cc1)c1ccnc(NCCN2CCOCC2)n1`, the pIC50 was 6.43.

On to `CC(=O)Nc1cccc(Nc2nccc(-c3c(-c4cccc(NC(=O)c5c(F)cccc5F)c4)nn4ncccc34)n2)c1`, for which the negative logarithm of the IC50 (pIC50) was 6.84.

`CCN(CC)CCCNc1nccc(N(C)c2ccc(NC(=O)Nc3cc(C(F)(F)F)ccc3F)cc2)n1`: the pIC50 is 6.15.

Take `Cc1ccc(Nc2nc3cc(Nc4ccnc(Nc5cccc(CS(C)(=O)=O)c5)n4)ccc3o2)cc1`: the pIC50 was 6.64.

Consider `Cn1cnc2c(Nc3ccncc3)nc(-c3ccc4c(c3)OCO4)nc21`, for which the pIC50 is 6.30.

For `CN(C)CC(O)COc1ccc(Nc2ncc([N+](=O)[O-])c(Nc3ccccc3O)n2)cc1` (centres undefined), the pIC50 was 7.17.

For the compound `NS(=O)(=O)c1cccc(Nc2nccc(-c3cnn4ncccc34)n2)c1`, the pIC50 was 6.61.

As to `CN(c1ccc2c(c1)nc(NCc1ccc(F)cc1)n2C)c1ccnc(Nc2ccc(CS(C)(=O)=O)cc2)n1`, the pIC50 is 6.07.

As for `COc1ccc(Nc2ncc(C#N)c(Nc3ccccc3C(N)=O)n2)cc1N1CCN(C)CC1`, the pIC50 was 7.21.

With `NCCNC(=O)c1ccc(-c2cnc3[nH]cc(-c4ccc(C(N)=O)cc4)c3c2)cc1`, the pIC50 is 6.03.

`COc1c(CN2CCCC2)cccc1-c1cc2c(-c3ccc(C(=O)O)c(C(C)C)c3)ccnc2[nH]1`: the pIC50 is 6.27.

Regarding `CC(=O)Nc1nc(C)c(-c2csc(Nc3ccc(Cl)cc3)n2)s1`, the pIC50 is 7.02.

`NC(=O)c1ccccc1Nc1nc(Nc2cccc(N3CCN(CCO)CC3)c2)ncc1Cl`: the pIC50 is 7.10.

For the compound `NCCNS(=O)(=O)c1ccc(-c2ccnc3[nH]c(-c4ccncc4)cc23)cc1`, the pIC50 is 6.68.

Consider `Nc1ncnc2occ(-c3ccc(NC(=O)Nc4cc(C(F)(F)F)ccc4F)cc3)c12`, for which the pIC50 is 6.47.

Regarding `CN(c1ccc(NC(=O)Nc2cccc(Cl)c2)cc1)c1ccnc(N)n1`, the pIC50 was 6.40.

`COc1c(CN2CCOCC2)cccc1-c1cc2c(-c3ccc(C(=O)O)c(C(C)C)c3)ccnc2[nH]1`: the pIC50 was 6.16.

With `CN(C)Cc1cccc(-c2cc3c(-c4cnn(C)c4)c(Cl)cnc3[nH]2)c1`, the pIC50 is 6.89.

On to `CC(c1cccc(Nc2nccc(-c3c(-c4cccc(NC(=O)c5c(F)cccc5F)c4)nn4ncccc34)n2)c1)S(C)(=O)=O` (centres undefined), for which the pIC50 was 6.43.

On to `CS(=O)(=O)Cc1ccc(Nc2ncc(Cl)c(Nc3cccnc3C(N)=O)n2)cc1`, for which the pIC50 is 6.16.

For `N#Cc1cnc(Nc2ccc(Oc3ccccc3)cc2)nc1Nc1cccc(S(N)(=O)=O)c1`, the pIC50 was 6.70.

For `Cc1cc(Nc2ncc(C#N)c(Nc3ccccc3C(N)=O)n2)ccc1N1CCN(C)CC1`, the pIC50 is 7.27.

As to `CS(=O)(=O)Cc1ccc(Nc2nccc(N3CCCc4cc(NC(=O)Nc5cccc(C(F)(F)F)c5)ccc43)n2)cc1`, the pIC50 was 6.41.

Source of the values: PubChem BioAssay AID1159586 (Gregory J. Crowther, 2016).
